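Briefly, cells in 96-well plates were exposed to five compound concentrations for 48 h, and endpoints were estimated by linear interpolation. GI50 is the concentration that inhibits growth by half.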 Activity calls are given as the source filed them. Rule as the data show it: active = GI50 up to about 1.1 µM and inactive = higher.
Columns and labels:
Experiment in all cases: NCI anticancer screen, dose series, 48 h
LOX IMVI = test system: LOX IMVI
A498 = test system: A498
SF-539 = test system: SF-539
ACHN = test system: ACHN
Hs-578T = test system: Hs-578T
SN12C = test system: SN12C
Malme-3M = test system: Malme-3M
SK-MEL-28 = test system: SK-MEL-28
U-251 = test system: U-251
MCF7 = test system: MCF7
HCT-116 = test system: HCT-116
HL-60 = test system: HL-60
SF-268 = test system: SF-268
CCRF-CEM = test system: CCRF-CEM
NCI-H460 = test system: NCI-H460
EKVX = test system: EKVX
SK-OV-3 = test system: SK-OV-3
PC-3 = test system: PC-3
OVCAR-8 = test system: OVCAR-8
K562 = test system: K562

Structure (SMILES) | GI50 (LOX IMVI) | GI50 (A498) | GI50 (SF-539) | GI50 (ACHN) | GI50 (Hs-578T) | GI50 (SN12C) | GI50 (Malme-3M) | GI50 (SK-MEL-28) | GI50 (U-251) | GI50 (MCF7) | GI50 (HCT-116) | GI50 (HL-60) | GI50 (SF-268) | GI50 (CCRF-CEM) | GI50 (NCI-H460) | GI50 (EKVX) | GI50 (SK-OV-3) | GI50 (PC-3) | GI50 (OVCAR-8) | GI50 (K562)
O=C1NC2C(=CC(O)C(O)C2O)c2cc3c(cc21)OCO3 (stereo not given) | 0.308 µM (active) | 0.759 µM (active) | 0.458 µM (active) | 0.144 µM (active) | 0.0794 µM (active) | 0.301 µM (active) | 0.488 µM (active) | 0.417 µM (active) | 0.218 µM (active) | 0.338 µM (active) | 0.15 µM (active) | 0.108 µM (active) | 0.171 µM (active) | 0.206 µM (active) | 0.194 µM (active) | 0.412 µM (active) | 0.619 µM (active) | 0.141 µM (active) | 0.233 µM (active) | 0.34 µM (active)
CCN(CC)CCCNc1[nH]c2ccccc2c2nc3ccc(OC)cc3c1-2 | 1.11 µM (active) | 2.12 µM (inactive) | 2.16 µM (inactive) | 4.27 µM (inactive) | 1.78 µM (inactive) | 2.1 µM (inactive) | 1.76 µM (inactive) | 1.69 µM (inactive) | 1.77 µM (inactive) | 1.04 µM (active) | 0.618 µM (active) | 1.21 µM (inactive) | 1.77 µM (inactive) | 0.61 µM (active) | 0.367 µM (active) | 1.71 µM (inactive) | 3.08 µM (inactive) | 1.22 µM (inactive) | 0.824 µM (active) | 1.27 µM (inactive)
Cc1cccc(C(=O)O)c1CC1NCCC2c3ccccc3NC12 (stereo not given) | > 100 µM (inactive) | > 100 µM (inactive) | > 100 µM (inactive) | > 100 µM (inactive) | > 100 µM (inactive) | > 100 µM (inactive) | > 100 µM (inactive) | > 100 µM (inactive) | > 100 µM (inactive) | > 100 µM (inactive) | > 100 µM (inactive) | > 100 µM (inactive) | > 100 µM (inactive) | > 100 µM (inactive) | > 100 µM (inactive) | > 100 µM (inactive) | > 100 µM (inactive) | > 100 µM (inactive) | > 100 µM (inactive) | > 100 µM (inactive)
O=C(CN1CCN(c2ccccc2)CC1)c1ccc2[nH]c(=O)oc2c1 | > 100 µM (inactive) | > 100 µM (inactive) | 36.5 µM (inactive) | > 100 µM (inactive) | 70 µM (inactive) | > 100 µM (inactive) | > 100 µM (inactive) | > 100 µM (inactive) | 35.6 µM (inactive) | > 100 µM (inactive) | > 100 µM (inactive) | > 100 µM (inactive) | > 100 µM (inactive) | > 100 µM (inactive) | > 100 µM (inactive) | > 100 µM (inactive) | > 100 µM (inactive) | > 100 µM (inactive) | > 100 µM (inactive) | > 100 µM (inactive)
COC(=O)c1c(O)ccc2c1C1(Cc3ccccc3C1=O)C(O)O2 (stereo not given) | 19.5 µM (inactive) | > 100 µM (inactive) | 20.1 µM (inactive) | 14.9 µM (inactive) | 23.3 µM (inactive) | 16.4 µM (inactive) | 21.7 µM (inactive) | 36.9 µM (inactive) | 20.5 µM (inactive) | 12.6 µM (inactive) | 15.6 µM (inactive) | 4.02 µM (inactive) | 15.6 µM (inactive) | 2.46 µM (inactive) | 8.85 µM (inactive) | 23.1 µM (inactive) | 20.2 µM (inactive) | 17.2 µM (inactive) | 14.5 µM (inactive) | 12.8 µM (inactive)
Cn1cncc1CC1COC(=O)C1C(O)c1ccccc1 (stereo not given) | > 100 µM (inactive) | > 100 µM (inactive) | > 100 µM (inactive) | > 100 µM (inactive) | > 100 µM (inactive) | > 100 µM (inactive) | > 100 µM (inactive) | > 100 µM (inactive) | > 100 µM (inactive) | > 100 µM (inactive) | > 100 µM (inactive) | > 100 µM (inactive) | > 100 µM (inactive) | > 100 µM (inactive) | > 100 µM (inactive) | > 100 µM (inactive) | > 100 µM (inactive) | > 100 µM (inactive) | > 100 µM (inactive) | > 100 µM (inactive)
O=c1cc(NCc2ccncc2)[nH]c(=O)[nH]1 | > 100 µM (inactive) | > 100 µM (inactive) | > 100 µM (inactive) | > 100 µM (inactive) | > 100 µM (inactive) | > 100 µM (inactive) | > 100 µM (inactive) | > 100 µM (inactive) | > 100 µM (inactive) | > 100 µM (inactive) | > 100 µM (inactive) | > 100 µM (inactive) | > 100 µM (inactive) | > 100 µM (inactive) | > 100 µM (inactive) | > 100 µM (inactive) | > 100 µM (inactive) | > 100 µM (inactive) | > 100 µM (inactive) | > 100 µM (inactive)
Cc1c(S(=O)(=O)/N=C(\NN)Nc2ccc(Cl)cc2)sc2ccc(Cl)cc12 | 18.6 µM (inactive) | 15.8 µM (inactive) | 14.3 µM (inactive) | 16.3 µM (inactive) | 36.6 µM (inactive) | 16.7 µM (inactive) | 22.3 µM (inactive) | 20.6 µM (inactive) | 16.3 µM (inactive) | 14.9 µM (inactive) | 13.3 µM (inactive) | 32.4 µM (inactive) | 18.8 µM (inactive) | 16.3 µM (inactive) | 16.6 µM (inactive) | 13.9 µM (inactive) | 19.7 µM (inactive) | 15.5 µM (inactive) | 16.8 µM (inactive) | 24 µM (inactive)
COCCCNC(=O)C1=C(C)NC(C)=C(C(=O)NCCCOC)C1 | > 100 µM (inactive) | > 100 µM (inactive) | > 100 µM (inactive) | > 100 µM (inactive) | 86.5 µM (inactive) | > 100 µM (inactive) | 18.1 µM (inactive) | > 100 µM (inactive) | > 100 µM (inactive) | > 100 µM (inactive) | > 100 µM (inactive) | > 100 µM (inactive) | > 100 µM (inactive) | > 100 µM (inactive) | > 100 µM (inactive) | 18.6 µM (inactive) | > 100 µM (inactive) | > 100 µM (inactive) | > 100 µM (inactive) | 46 µM (inactive)
COc1ccc(OC)c(NS(=O)(=O)c2ccc3nc(C)n(NS(=O)(=O)c4cc(OC)ccc4OC)c(=O)c3c2)c1 | 77.6 µM (inactive) | > 100 µM (inactive) | > 100 µM (inactive) | > 100 µM (inactive) | > 100 µM (inactive) | > 100 µM (inactive) | > 100 µM (inactive) | > 100 µM (inactive) | > 100 µM (inactive) | 87.1 µM (inactive) | 21.7 µM (inactive) | 26.2 µM (inactive) | > 100 µM (inactive) | 75.7 µM (inactive) | 82.4 µM (inactive) | > 100 µM (inactive) | > 100 µM (inactive) | 78.9 µM (inactive) | > 100 µM (inactive) | 32.6 µM (inactive)
CC(=O)N1C2=CCCC2(C)c2ccccc21 (stereo not given) | > 100 µM (inactive) | > 100 µM (inactive) | > 100 µM (inactive) | > 100 µM (inactive) | > 100 µM (inactive) | 70.5 µM (inactive) | 67.5 µM (inactive) | > 100 µM (inactive) | > 100 µM (inactive) | > 100 µM (inactive) | 37.1 µM (inactive) | 23.7 µM (inactive) | > 100 µM (inactive) | > 100 µM (inactive) | 72.8 µM (inactive) | > 100 µM (inactive) | > 100 µM (inactive) | 52.4 µM (inactive) | > 100 µM (inactive) | 33.8 µM (inactive)
CCCN1C(=O)CCC2=C1CCc1c2ccc(Cl)c1Cl | 25.6 µM (inactive) | 13 µM (inactive) | 25.9 µM (inactive) | 24.3 µM (inactive) | 0.0472 µM (active) | 28.2 µM (inactive) | 61.1 µM (inactive) | 92 µM (inactive) | 22.9 µM (inactive) | 42.1 µM (inactive) | 27.7 µM (inactive) | 15.8 µM (inactive) | 27 µM (inactive) | 39.9 µM (inactive) | 43.6 µM (inactive) | 0.0305 µM (active) | 24.3 µM (inactive) | 27.3 µM (inactive) | 23.2 µM (inactive) | 35 µM (inactive)
COc1nc(N=P(c2ccccc2)(c2ccccc2)c2ccccc2)cc(=O)[nH]1 | > 100 µM (inactive) | > 100 µM (inactive) | > 100 µM (inactive) | > 100 µM (inactive) | > 100 µM (inactive) | > 100 µM (inactive) | > 100 µM (inactive) | > 100 µM (inactive) | > 100 µM (inactive) | > 100 µM (inactive) | > 100 µM (inactive) | > 100 µM (inactive) | > 100 µM (inactive) | > 100 µM (inactive) | > 100 µM (inactive) | > 100 µM (inactive) | > 100 µM (inactive) | > 100 µM (inactive) | > 100 µM (inactive) | > 100 µM (inactive)
COc1cc(OC)c(-c2cc(=O)c3c(OC)c(OC)c(OC)c(OC)c3o2)cc1OC | > 100 µM (inactive) | > 61.2 µM (inactive) | > 100 µM (inactive) | > 100 µM (inactive) | 32 µM (inactive) | > 100 µM (inactive) | > 100 µM (inactive) | > 100 µM (inactive) | 64 µM (inactive) | > 100 µM (inactive) | > 100 µM (inactive) | 13.6 µM (inactive) | > 100 µM (inactive) | > 28.4 µM (inactive) | > 100 µM (inactive) | > 100 µM (inactive) | > 100 µM (inactive) | 88.1 µM (inactive) | 31.3 µM (inactive) | > 73.1 µM (inactive)

— ChEMBL document CHEMBL1201862, “PubChem BioAssay data set” (2004)
